# Assay: Osmolality of 30 mg/mL 25HC3S, 250 mg/mL HPbCD, 10 mM phosphate solution
# Format: physicochemical
# Conditions: 30 mg/mL 25HC3S sodium salt, 10 mM sodium phosphate buffer in water
# Experimental: The optimal concentration of HPbCD to solubilize a high amount of 25HC3S, and to contain a small amount of buffer (10 mM phosphate buffer) to minimize pH changes on stability, is 250 mg/mL HPbCD. The solution of 30 mg/mL 25HC3S sodium salt, 250 mg/mL HPbCD with 10 mM sodium phosphate buffer in water has an osmolality of approximately 320 mmol/kg. Isotonic solutions range from 270-340 mmol/kg. Higher concentrations of HPbCD greater than 250 mg/mL with higher than 30 mg/mL concentrations of 25HC3S lead to hypertonic solutions. Hypertonic solutions can cause pain upon subcutaneous and intramuscular injection. Conversely, concentrations of HPbCD much less than 250 mg/mL with much less than 30 mg/mL concentrations of 25HC3S require the addition of an isotonic agent, such as sodium chloride or mannitol, to bring the isotonicity into the expected range for a parenteral dosage form.
smiles,measurement,value
"C[C@H](CCCC(C)(C)O)[C@H]1CC[C@H]2[C@@H]3CC=C4C[C@@H](OS(=O)(=O)[O-])CC[C@]4(C)[C@H]3CC[C@]12C.[Na+] [25HC3S, 5-cholesten-3, 25-diol, 3-sulfate]",Osmolality,approximately 320 mmol/kg

# — US20230047788A1, “COMPOSITIONS COMPRISING 5-CHOLESTEN-3, 25-DIOL, 3-SULFATE (25HC3S) OR PHARMACEUTICALLY ACCEPTABLE SALT THEREOF AND AT LEAST ONE CYCLIC OLIGOSACCHARIDE” (Virginia Commonwealth University, priority 2016, published 2023)
